{"source": "PubChem BioAssay AID1259408", "about": "(Genetic Toxicology Data Bank (GENE-TOX), 2018)", "tested_on": "GENE-TOX genotoxicity assays, various organisms and cells", "test": "GENE-TOX mutagenicity studies", "settings": "for call: Assay Type: In vivo carcinogenicity studies", "key": {"[1]": {"settings": "Species/Cell Type: Salmonella typhimurium (one or more of the five standard strains: TA98, TA100, TA1535, TA1537, and TA1538), Assay Type: Histidine reverse gene mutation, Ames assay, Assay Code: SAL-, Evaluation Type: Evaluation A (Pre-1980)"}, "[2]": {"settings": "Species/Cell Type: Drosophila melanogaster, Assay Type: Sex-linked recessive lethal gene mutation, Assay Code: SRL+, Evaluation Type: Evaluation A (Pre-1980)"}, "[3]": {"settings": "Species/Cell Type: Drosophila melanogaster, Assay Type: Sex-linked recessive lethal gene mutation, Assay Code: SRLT, Evaluation Type: Evaluation A (Pre-1980)"}, "[4]": {"settings": "Species/Cell Type: Salmonella typhimurium (one or more of the five standard strains: TA98, TA100, TA1535, TA1537, and TA1538), Assay Type: Histidine reverse gene mutation, Ames assay, Assay Code: SALT, Evaluation Type: Evaluation A (Pre-1980)"}, "[5]": {"settings": "Species/Cell Type: Salmonella typhimurium (one or more of the five standard strains: TA98, TA100, TA1535, TA1537, and TA1538), Assay Type: Histidine reverse gene mutation, Ames assay, Assay Code: SAL+*, Activation: With metabolic activation, Evaluation Type: Evaluation A (Pre-1980)"}, "[6]": {"settings": "Species/Cell Type: Escherichia coli polA (W3119 vs P3478), Assay Type: Rec-assay, DNA effects (bacterial DNA repair), Assay Code: RE1+, Evaluation Type: Evaluation A (Pre-1980)"}}, "note": "The source made the active and inactive calls. No rule for the calls is given here."}
{"smiles": "COC([CH2][Hg+])CNC(=O)C1CCC(C)(C(=O)[O-])C1(C)C.O=C([O-])C[S-].[H+].[H+]", "note": "(stereo not given)", "values": [{"measurement": "mutagenic call", "setting": "Species/Cell Type: Mammalian oocytes or early embryo, Assay Type: Chromosome aberrations in vivo, Assay Code: CYO-, Evaluation Type: Evaluation A (Pre-1980)", "value": "inactive; negative"}]}
{"smiles": "NC1(C(=O)O)CCCC1", "values": [{"measurement": "mutagenic call", "setting": "Species/Cell Type: Escherichia coli polA (W3119 vs P3478), Assay Type: Rec-assay, DNA effects (bacterial DNA repair), Assay Code: RE1T, Evaluation Type: Evaluation A (Pre-1980)", "value": "no conclusion"}]}
{"smiles": "C[CH2][Hg][S]c1ccc(OS(=O)O)cc1", "values": [{"measurement": "mutagenic call", "setting": "Species/Cell Type: Saccharomyces cerevisiae, Assay Type: Aneuploidy, chromosome aberrations, Assay Code: YEN+, Evaluation Type: Evaluation A (Pre-1980)", "value": "active; positive"}]}
{"smiles": "Cc1cc(C(C)(C)C)c(O)c(C(C)(C)C)c1", "values": [{"measurement": "mutagenic call", "setting": "Species/Cell Type: Allium cepa, Assay Type: Chromosome aberrations, Assay Code: ALC+, Evaluation Type: Evaluation A (Pre-1980)", "value": "active; positive"}, {"measurement": "mutagenic call", "setting": "Species/Cell Type: Drosophila melanogaster, Assay Type: Aneuploidy, whole sex chromosome loss, chromosome aberrations, Assay Code: DAC+M, Evaluation Type: Evaluation A (Pre-1980)", "value": "active; positive"}, {"measurement": "mutagenic call", "setting": "Species/Cell Type: Drosophila melanogaster, Assay Type: Sex-linked recessive lethal gene mutation, Assay Code: SRL-, Evaluation Type: Evaluation A (Pre-1980)", "value": "inactive; negative"}, {"measurement": "mutagenic call", "setting": "Species/Cell Type: Drosophila melanogaster, Sex: Male, Assay Type: Heritable translocation test, chromosome aberrations, Assay Code: DHTT, Evaluation Type: Evaluation A (Pre-1980)", "value": "no conclusion"}, {"measurement": "mutagenic call", "setting": "Species/Cell Type: Mammalian polychromatic erythrocytes, Assay Type: Micronucleus test, chromosome aberrations, Assay Code: MNTT, Evaluation Type: Evaluation A (Pre-1980)", "value": "no conclusion"}, {"measurement": "mutagenic call", "setting": "Species/Cell Type: Mouse, Sex: Male, Assay Type: Specific locus test, gene mutation, Assay Code: SLT-, Evaluation Type: Evaluation A (Pre-1980)", "value": "inactive; negative"}, {"measurement": "mutagenic call", "setting": "Species/Cell Type: Mouse, Sex: Male, Assay Type: Sperm morphology, Assay Code: SPIT, Evaluation Type: Evaluation A (Pre-1980)", "value": "no conclusion"}, {"measurement": "mutagenic call", "setting": "[1]", "value": "inactive; negative"}]}
{"smiles": "CN(C)N=Nc1c(F)cc(F)cc1F", "values": [{"measurement": "mutagenic call", "setting": "[2]", "value": "active; positive"}]}
{"smiles": "CN(C)c1ccc(C(=C2C=CC(=[N+](C)C)C=C2)c2ccc(N(C)C)cc2)cc1", "values": [{"measurement": "mutagenic call", "setting": "Species/Cell Type: Bacillus subtilis (H17 vs M45), Assay Type: Rec-assay, spot test, DNA effects (bacterial DNA repair), Assay Code: REW+, Evaluation Type: Evaluation A (Pre-1980)", "value": "active; positive"}, {"measurement": "mutagenic call", "setting": "Species/Cell Type: Bacillus subtilis (H17 vs M45T), Assay Type: Rec-assay, spot test, DNA effects (bacterial DNA repair), Assay Code: REXT, Evaluation Type: Evaluation A (Pre-1980)", "value": "no conclusion"}, {"measurement": "mutagenic call", "setting": "[3]", "value": "no conclusion"}, {"measurement": "mutagenic call", "setting": "Species/Cell Type: Saccharomyces cerevisiae, Assay Type: Mitotic recombination or gene conversion, Assay Code: YEH-, Evaluation Type: Evaluation A (Pre-1980)", "value": "inactive; negative"}, {"measurement": "mutagenic call", "setting": "[4]", "value": "no conclusion"}]}
{"smiles": "CCCCOC(=O)COc1cc(Cl)c(Cl)cc1Cl", "values": [{"measurement": "mutagenic call", "setting": "Species/Cell Type: Salmonella typhimurium, Serratia marcesens, Assay Type: Forward and reverse gene mutation, host-mediated assay, Assay Code: HM2T, Evaluation Type: Evaluation A (Pre-1980)", "value": "no conclusion"}]}
{"smiles": "CC1CCCN(N=O)C1", "note": "(stereo not given)", "values": [{"measurement": "mutagenic call", "setting": "[2]", "value": "active; positive"}, {"measurement": "call", "setting": "Species/Cell Type: Nonhuman, Assay Code: CCG+L, Evaluation Type: Evaluation A (Pre-1980)", "value": "active; positive"}, {"measurement": "mutagenic call", "setting": "Species/Cell Type: Saccharomyces cerevisiae, Assay Type: Forward gene mutation, Assay Code: YEF+*, Activation: With metabolic activation, Evaluation Type: Evaluation A (Pre-1980)", "value": "active; positive"}, {"measurement": "mutagenic call", "setting": "Species/Cell Type: Saccharomyces cerevisiae, Assay Type: Reverse gene mutation, Assay Code: YER+*, Activation: With metabolic activation, Evaluation Type: Evaluation A (Pre-1980)", "value": "active; positive"}, {"measurement": "mutagenic call", "setting": "[5]", "value": "active; positive"}]}
{"smiles": "ClC(Cl)(Cl)C1CO1", "note": "(stereo not given)", "values": [{"measurement": "mutagenic call", "setting": "[3]", "value": "no conclusion"}, {"measurement": "mutagenic call", "setting": "Species/Cell Type: Human lymphocytes, Assay Type: Sister-chromatid exchange (SCE) in vitro, Assay Code: SCL+, Evaluation Type: Evaluation B (Post-1980)", "value": "active; positive"}, {"measurement": "mutagenic call", "setting": "Species/Cell Type: Human, Assay Type: Sister-chromatid exchange (SCE) in vitro, Assay Code: SC1+, Evaluation Type: Evaluation B (Post-1980)", "value": "active; positive"}, {"measurement": "mutagenic call", "setting": "Species/Cell Type: Saccharomyces cerevisiae, Assay Type: Mitotic recombination or gene conversion, Assay Code: YEH+/-*, Activation: With metabolic activation, Evaluation Type: Evaluation A (Pre-1980)", "value": "inactive; positive without activation, negative with activation"}]}
{"smiles": "CN1C(C(=O)Nc2ccccn2)=C(O)c2ccccc2S1(=O)=O", "values": [{"measurement": "mutagenic call", "setting": "Species/Cell Type: Human lymphocytes, Assay Type: Sister-chromatid exchange (SCE) in vivo, Assay Code: SCY+, Evaluation Type: Evaluation B (Post-1980)", "value": "active; positive"}]}
{"smiles": "C/C=C/C=C/C(=O)O", "values": [{"measurement": "mutagenic call", "setting": "Species/Cell Type: Nonhuman, Assay Type: Sister-chromatid exchange (SCE) in vitro, Assay Code: SC2T, Evaluation Type: Evaluation A (Pre-1980)", "value": "no conclusion"}]}
{"smiles": "[Cl-].[Cl-].[Cl-].[Ru+3]", "values": [{"measurement": "mutagenic call", "setting": "Species/Cell Type: Bacillus subtilis (H17 vs M45), Assay Type: Rec-assay, spot test, DNA effects (bacterial DNA repair), Assay Code: REW-, Evaluation Type: Evaluation A (Pre-1980)", "value": "inactive; negative"}]}
{"smiles": "ClCCCl", "values": [{"measurement": "mutagenic call", "setting": "Species/Cell Type: Chinese hamster ovary (CHO) cells, Assay Type: Forward gene mutation at the HPRT locus, Assay Code: CHO+, Evaluation Type: Evaluation B (Post-1980)", "value": "active; positive"}, {"measurement": "mutagenic call", "setting": "Species/Cell Type: Drosophila melanogaster, Assay Type: Aneuploidy, sex chromosome gain, chromosome aberrations, Assay Code: DAG+F, Evaluation Type: Evaluation A (Pre-1980)", "value": "active; positive"}, {"measurement": "mutagenic call", "setting": "Species/Cell Type: Drosophila melanogaster, Assay Type: Aneuploidy, whole sex chromosome loss, chromosome aberrations, Assay Code: DAC+F, Evaluation Type: Evaluation A (Pre-1980)", "value": "active; positive"}, {"measurement": "mutagenic call", "setting": "[2]", "value": "active; positive"}, {"measurement": "mutagenic call", "setting": "[6]", "value": "active; positive"}, {"measurement": "call", "setting": "Species/Cell Type: Nonhuman, Assay Code: CCG+, Evaluation Type: Evaluation A (Pre-1980)", "value": "active; positive"}, {"measurement": "mutagenic call", "setting": "[5]", "value": "active; positive"}, {"measurement": "mutagenic call", "setting": "Species/Cell Type: Salmonella typhimurium, Assay Type: Forward and reverse gene mutation, body fluid assay, Assay Code: BFU+, Evaluation Type: Evaluation A (Pre-1980)", "value": "active; positive"}, {"measurement": "mutagenic call", "setting": "Species/Cell Type: Syrian hamster embryo (SA7/SHE) cells, Assay Type: Cell transformation, viral enhanced, Assay Code: CT7+, Evaluation Type: Evaluation A (Pre-1980)", "value": "active; positive"}]}
{"smiles": "COc1ccc2c3c([nH]c2c1)[C@H](CC(C)(C)O)N1C(=O)[C@@H]2CCCN2C(=O)[C@]1(O)[C@H]3O", "values": [{"measurement": "mutagenic call", "setting": "[4]", "value": "no conclusion"}]}
{"smiles": "CCC1(c2ccccc2)C(=O)N=C(O)NC1=O", "note": "(stereo not given)", "values": [{"measurement": "mutagenic call", "setting": "[3]", "value": "no conclusion"}, {"measurement": "mutagenic call", "setting": "Species/Cell Type: Mouse, Sex: Male, Assay Type: Sperm morphology, Assay Code: SPI-, Evaluation Type: Evaluation A (Pre-1980)", "value": "inactive; negative"}, {"measurement": "mutagenic call", "setting": "Species/Cell Type: Nonhuman, Assay Type: Sister-chromatid exchange (SCE) in vivo, Assay Code: SC3T, Evaluation Type: Evaluation B (Post-1980)", "value": "no conclusion"}, {"measurement": "mutagenic call", "setting": "[1]", "value": "inactive; negative"}]}
{"smiles": "O=[N+]([O-])c1ccc(N2CCN(Cc3ccccc3)CC2)c2c1no[n+]2[O-]", "values": [{"measurement": "mutagenic call", "setting": "Species/Cell Type: Salmonella typhimurium (one or more of the five standard strains: TA98, TA100, TA1535, TA1537, and TA1538), Assay Type: Histidine reverse gene mutation, Ames assay, Assay Code: SAL+, Evaluation Type: Evaluation A (Pre-1980)", "value": "active; positive"}]}
{"smiles": "O=[N+]([O-])c1ccc(F)c([N+](=O)[O-])c1", "values": [{"measurement": "mutagenic call", "setting": "[6]", "value": "active; positive"}, {"measurement": "mutagenic call", "setting": "Species/Cell Type: Nonhuman, Assay Type: Sister-chromatid exchange (SCE) in vitro, Assay Code: SC2-, Evaluation Type: Evaluation B (Post-1980)", "value": "inactive; negative"}, {"measurement": "mutagenic call", "setting": "Species/Cell Type: Saccharomyces cerevisiae, Assay Type: Forward gene mutation, Assay Code: YEF+, Evaluation Type: Evaluation A (Pre-1980)", "value": "active; positive"}, {"measurement": "mutagenic call", "setting": "Species/Cell Type: Saccharomyces cerevisiae, Assay Type: Mitotic recombination or gene conversion, Assay Code: YEC+, Evaluation Type: Evaluation A (Pre-1980)", "value": "active; positive"}, {"measurement": "mutagenic call", "setting": "Species/Cell Type: Saccharomyces cerevisiae, Assay Type: Mitotic recombination or gene conversion, Assay Code: YEH+, Evaluation Type: Evaluation A (Pre-1980)", "value": "active; positive"}]}
